Among the data in patent US9815796B2 (Merck Sharp & Dohme Corp., priority 2013, dated 2017) are Ki values, retold here.

For orientation: Ki means a measure of affinity in units of concentration, obtained from inhibition or displacement.

One test addresses Rhesus PDE2A3 (Macaca mulatta, UniProt B3VTJ2). Nature of the test: PDE2 fluorescence polarization (IMAP FP) inhibition assay, rhesus enzyme. The format is biochemical, rhesus macaque. An outline of the steps:
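Rhesus PDE2A3 came from lysate of transiently transfected AD293 cells, diluted to give 20% substrate conversion. Substrate was 50 nM FAM-cAMP with 1 uM cGMP activator in Tris pH 7.2/MgCl2 buffer, run 60 min at room temperature over 10-point 3-fold dilutions in 1% DMSO. Read-out was IMAP fluorescence polarization (mP) after ≥1 h binding.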
On the technique in general: In fluorescence polarisation assays a small probe gives low polarisation when free and higher when bound to something large.

The target in another test is human PDE2A1 (Homo sapiens (Human), UniProt O00408). The test is described as follows: IMAP FP PDE selectivity panel, human PDE2A1. The format is biochemical. An outline of the steps:
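GST-tagged human PDE2A1 expressed in insect cells, run at room temperature for 60 min with 50 nM FAM-cAMP containing 1000 nM cGMP, pH 7.2 Tris/MgCl2 buffer. IMAP fluorescence polarization read after binding step.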

The mark [1] stands for this setting: Rhesus PDE2, Lab A, read-out: Rhesus PDE2 Ki (nM) - Lab A.
Setting [2] is: Human PDE2, Lab A, read-out: Human PDE2 Ki (nM) - Lab A.
[3] abbreviates: Human PDE2, Lab B, read-out: Human PDE2 Ki (nM) - Lab B.
Setting [4] is: Rhesus PDE2, Lab B, read-out: Rhesus PDE2 Ki (nM) - Lab B.

Like-named read-outs stand apart in the source and are kept apart here.

Rhesus PDE2A3, sequence (B3VTJ2 1-941): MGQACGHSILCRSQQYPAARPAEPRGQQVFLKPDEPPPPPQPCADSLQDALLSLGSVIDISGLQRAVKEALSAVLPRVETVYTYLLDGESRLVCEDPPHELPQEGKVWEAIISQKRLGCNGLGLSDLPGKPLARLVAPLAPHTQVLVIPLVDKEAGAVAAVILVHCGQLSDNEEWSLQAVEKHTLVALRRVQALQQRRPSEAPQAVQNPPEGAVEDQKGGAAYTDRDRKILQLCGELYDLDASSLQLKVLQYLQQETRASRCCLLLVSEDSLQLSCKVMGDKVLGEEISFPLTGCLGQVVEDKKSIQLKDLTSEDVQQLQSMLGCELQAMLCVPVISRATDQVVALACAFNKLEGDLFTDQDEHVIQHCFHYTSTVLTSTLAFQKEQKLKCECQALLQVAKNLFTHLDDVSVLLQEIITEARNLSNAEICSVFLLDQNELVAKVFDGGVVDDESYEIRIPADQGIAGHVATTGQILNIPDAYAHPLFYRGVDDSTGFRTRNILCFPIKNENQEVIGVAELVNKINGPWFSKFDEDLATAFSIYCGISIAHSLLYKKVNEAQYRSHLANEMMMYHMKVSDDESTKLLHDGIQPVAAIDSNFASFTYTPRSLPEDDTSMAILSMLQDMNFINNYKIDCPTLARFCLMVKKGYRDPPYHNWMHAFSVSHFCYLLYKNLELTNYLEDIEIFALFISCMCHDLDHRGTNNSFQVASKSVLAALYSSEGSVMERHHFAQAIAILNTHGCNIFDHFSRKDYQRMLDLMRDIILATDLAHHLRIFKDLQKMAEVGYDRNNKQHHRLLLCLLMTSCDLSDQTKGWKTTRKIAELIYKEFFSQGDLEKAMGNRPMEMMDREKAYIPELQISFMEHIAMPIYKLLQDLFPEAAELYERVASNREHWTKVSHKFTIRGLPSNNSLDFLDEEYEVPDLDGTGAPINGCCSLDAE
human PDE2A1, sequence (O00408 other isoform, or with tags, fused parts or gaps): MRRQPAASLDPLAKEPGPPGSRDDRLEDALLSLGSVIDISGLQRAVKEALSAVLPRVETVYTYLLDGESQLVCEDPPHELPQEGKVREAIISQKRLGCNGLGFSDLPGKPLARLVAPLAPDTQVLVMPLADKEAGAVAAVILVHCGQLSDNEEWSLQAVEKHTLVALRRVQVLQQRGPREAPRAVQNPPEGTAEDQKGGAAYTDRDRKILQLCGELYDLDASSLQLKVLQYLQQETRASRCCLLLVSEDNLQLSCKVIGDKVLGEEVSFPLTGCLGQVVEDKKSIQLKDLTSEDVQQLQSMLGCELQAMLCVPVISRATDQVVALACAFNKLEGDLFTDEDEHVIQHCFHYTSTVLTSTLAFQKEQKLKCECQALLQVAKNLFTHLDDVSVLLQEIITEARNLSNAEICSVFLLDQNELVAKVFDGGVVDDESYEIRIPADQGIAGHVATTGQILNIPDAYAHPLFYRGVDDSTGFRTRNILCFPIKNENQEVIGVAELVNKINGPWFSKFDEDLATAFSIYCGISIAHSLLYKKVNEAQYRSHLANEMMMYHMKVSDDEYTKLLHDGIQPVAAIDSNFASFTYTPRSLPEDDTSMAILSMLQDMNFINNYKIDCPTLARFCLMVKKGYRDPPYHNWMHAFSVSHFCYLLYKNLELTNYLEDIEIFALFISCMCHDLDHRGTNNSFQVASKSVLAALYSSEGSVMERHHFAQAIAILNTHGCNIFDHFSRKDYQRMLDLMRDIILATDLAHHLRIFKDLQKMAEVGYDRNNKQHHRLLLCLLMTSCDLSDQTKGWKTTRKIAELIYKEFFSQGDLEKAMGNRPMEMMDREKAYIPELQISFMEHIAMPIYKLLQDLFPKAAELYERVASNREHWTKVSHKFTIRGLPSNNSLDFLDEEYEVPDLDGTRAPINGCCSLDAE

With `Cc1nc(C(=O)NC(C)(C)c2ccc(C(F)(F)F)cc2)cc(=O)[nH]1` [Example 272, 2-methyl-N-{1-methyl-1-[4-(trifluoromethyl)phenyl]ethyl}-6-oxo-1,6-dihydropyrimidine-4-carboxamide], the Ki was 42 nM on Rhesus PDE2A3 (setting [1]), 40 nM on human PDE2A1 (setting [2]) and 71 nM at human PDE2A1 (setting [3]).

As for `COc1ccc(C(C)(C)c2nc(C(=O)N[C@@H](c3ccc(C(F)(F)F)c(F)c3)C(C)(C)C)cc(=O)[nH]2)cc1` [Example 489, N-{(1R)-1-[3-fluoro-4-(trifluoromethyl)phenyl]-2,2-dimethylpropyl}-2-[1-(4-methoxyphenyl)-1-methylethyl]-6-oxo-1,6-dihydropyrimidine-4-carboxamide], the Ki on Rhesus PDE2A3 (setting [4]) is 69 nM; on human PDE2A1 (setting [3]) it was 61 nM.

On to `Cc1nc(C(=O)N[C@@H](c2ccc(OC(F)(F)F)cc2)C2CC2)cc(=O)[nH]1` [Example 70, N-{(R)-cyclopropyl[4-(trifluoromethoxy)phenyl]methyl}-2-methyl-6-oxo-1,6-dihydropyrimidine-4-carboxamide], for which the Ki at Rhesus PDE2A3 (setting [1]) is 25 nM; on Rhesus PDE2A3 (setting [4]), 29 nM; at human PDE2A1 (setting [2]), roughly 14 nM; at human PDE2A1 (setting [3]) it was 29 nM.

For `Cc1nc(C(=O)N[C@H](C)c2ccc(C3CC3)c(F)c2)cc(=O)[nH]1` [Example 620, N-[(1R)-1-(4-cyclopropyl-3-fluorophenyl)ethyl]-2-methyl-6-oxo-1,6-dihydropyrimidine-4-carboxamide], the Ki on Rhesus PDE2A3 (setting [4]) came out at 15 nM; at human PDE2A1 (setting [3]) it was 19 nM.

Take `Cc1nc(C(=O)N[C@@H](c2ccc(C3CC3)cc2)C2CC2)cc(=O)[nH]1` [Example 50, N-[(R)-cyclopropyl(4-cyclopropylphenyl)methyl]-2-methyl-6-oxo-1,6-dihydropyrimidine-4-carboxamide]: the Ki on Rhesus PDE2A3 (setting [1]) stood at 8 nM; at Rhesus PDE2A3 (setting [4]) it was 11 nM; at human PDE2A1 (setting [3]), 8.1 nM.

In the case of `COc1ccc(Cc2nc(C(=O)N[C@@H](c3ccc(C(F)(F)F)cc3)C3CC3)cc(=O)[nH]2)cc1` [Example 481, N-{(R)-cyclopropyl[4-(trifluoromethyl)phenyl]methyl}-2-(4-methoxybenzyl)-6-oxo-1,6-dihydropyrimidine-4-carboxamide], the Ki at Rhesus PDE2A3 (setting [4]) and at human PDE2A1 (setting [3]) was 1.9 nM in each case.

For `CC[C@@H](NC(=O)c1cc(=O)[nH]c(Cc2ccc(OC)cc2)n1)c1ccc(SC(F)(F)F)cc1` [Example 476, 2-(4-methoxybenzyl)-6-oxo-N-[(1R)-1-{4-[(trifluoromethyl)sulfanyl]phenyl}propyl]-1,6-dihydropyrimidine-4-carboxamide], the Ki at Rhesus PDE2A3 (setting [4]) stood at 1.4 nM; at human PDE2A1 (setting [3]) it was 1.8 nM.

On to `C[C@@H](NC(=O)c1cc(=O)[nH]c(-c2ccccc2)n1)c1ccc(N(C)C)cc1` [Example 374, N-{(1R)-1-[4-(dimethylamino)phenyl]ethyl}-6-oxo-2-phenyl-1,6-dihydropyrimidine-4-carboxamide], for which the Ki is 24 nM on Rhesus PDE2A3 (setting [1]), 36 nM at Rhesus PDE2A3 (setting [4]) and 33 nM at human PDE2A1 (setting [3]).

As to `O=C(NCc1ccc(C(F)(F)F)cc1)c1cc(=O)[nH]c(-c2ccccc2)n1` [Example 371, 6-oxo-2-phenyl-N-[4-(trifluoromethyl)benzyl]-1,6-dihydropyrimidine-4-carboxamide], the results for the Ki at Rhesus PDE2A3 (setting [1]), on Rhesus PDE2A3 (setting [4]) and at human PDE2A1 (setting [3]) were 68 nM, 150 nM and 117 nM, respectively.

For the compound `C[C@@H](NC(=O)c1cc(=O)[nH]c(Cc2ccc(F)cc2)n1)c1ccc(C(F)(F)F)cc1` [Example 132, 2-(4-fluorobenzyl)-6-oxo-N-{(1R)-1-[4-(trifluoromethyl)phenyl]ethyl}-1,6-dihydropyrimidine-4-carboxamide], the values for the inhibition constant Ki on Rhesus PDE2A3 (setting [1]) and on human PDE2A1 (setting [2]) were 34 nM and 24 nM, respectively.

Consider `CC(C)[C@@H](NC(=O)c1cc(=O)[nH]c(C2CC2)n1)c1ccc(OC(F)(F)F)cc1` [Example 191, 2-cyclopropyl-N-{(1R)-2-methyl-1-[4-(trifluoromethoxy)phenyl]propyl}-6-oxo-1,6-dihydropyrimidine-4-carboxamide], for which the Ki at Rhesus PDE2A3 (setting [1]) turned out to be 3.4 nM; at human PDE2A1 (setting [2]), 1.2 nM.

Take `O=C(NC1(c2ccc(OC(F)(F)F)cc2)CCC1)c1cc(=O)[nH]c(-c2ccccc2)n1` [Example 282]: the Ki at Rhesus PDE2A3 (setting [1]) came out at 124 nM; at human PDE2A1 (setting [2]), 61 nM.

For the compound `Cc1nc(C(=O)N[C@H](C)c2ccc(-c3ccccc3F)cc2)cc(=O)[nH]1` [Example 324, N-[(1R)-1-(2′-fluorobiphenyl-4-yl)ethyl]-2-methyl-6-oxo-1,6-dihydropyrimidine-4-carboxamide], the Ki at Rhesus PDE2A3 (setting [1]) is 131 nM; at human PDE2A1 (setting [2]), 138 nM.

Take `Cc1nc(C(=O)NC2(c3ccc(C(F)(F)F)c(F)c3)CC2)cc(=O)[nH]1` [Example 44, N-{1-[3-fluoro-4-(trifluoromethyl)phenyl]cyclopropyl}-2-methyl-6-oxo-1,6-dihydropyrimidine-4-carboxamide]: the Ki at Rhesus PDE2A3 (setting [1]) came out at 17 nM; at Rhesus PDE2A3 (setting [4]) it was 16 nM; at human PDE2A1 (setting [2]), 10 nM; on human PDE2A1 (setting [3]), 16 nM.

As to `Cc1nc(C(=O)NC2(c3ccc(SC(F)(F)F)c(F)c3)CC2)cc(=O)[nH]1` [Example 261, N-(1-{3-fluoro-4-[(trifluoromethyl)sulfanyl]phenyl}cyclopropyl)-2-methyl-6-oxo-1,6-dihydropyrimidine-4-carboxamide], the Ki on Rhesus PDE2A3 (setting [1]) came to 18 nM; on Rhesus PDE2A3 (setting [4]), 37 nM; on human PDE2A1 (setting [3]), 33 nM.

`Cc1nc(C(=O)N[C@H](C)c2ccc(OC(F)F)cc2)cc(=O)[nH]1` [Example 304, (R)-N-(1-(4-(difluoromethoxy)phenyl)ethyl)-2-methyl-6-oxo-1,6-dihydropyrimidine-4-carboxamide]: the results for the Ki at Rhesus PDE2A3 (setting [1]) and on human PDE2A1 (setting [2]) were 91 nM and 76 nM, respectively.

Turning to `CC(C)(C)[C@@H](NC(=O)c1cc(=O)[nH]c(C2CC2)n1)c1ccc(C(F)(F)F)cc1` [Example 262, 2-cyclopropyl-N-{(1R)-2,2-dimethyl-1-[4-(trifluoromethyl)phenyl]propyl}-6-oxo-1,6-dihydropyrimidine-4-carboxamide], the Ki at Rhesus PDE2A3 (setting [1]) was 0.65 nM; on Rhesus PDE2A3 (setting [4]), 0.85 nM; at human PDE2A1 (setting [3]) it was 0.79 nM.

Consider `CC(C)(NC(=O)c1cc(=O)[nH]c(-c2ncccn2)n1)c1ccc(C(F)(F)F)c(F)c1` [Example 82, N-{1-[3-fluoro-4-(trifluoromethyl)phenyl]-1-methylethyl}-6-oxo-1,6-dihydro-2,2′-bipyrimidine-4-carboxamide], for which the Ki is 153 nM at Rhesus PDE2A3 (setting [1]) and 82 nM at human PDE2A1 (setting [2]).

Turning to `CC(NC(=O)c1cc(=O)[nH]c(-c2ccccc2)n1)c1ccc(C2CC2)cc1` (stereo not shown) [Example 164, N-[1-(4-cyclopropylphenyl)ethyl]-6-oxo-2-phenyl-1,6-dihydropyrimidine-4-carboxamide], the Ki on Rhesus PDE2A3 (setting [1]) amounted to 9 nM; on human PDE2A1 (setting [2]) it was 9.4 nM.

With `Cc1nc(C(=O)NC(C)(C)c2ccc(C(F)(F)F)c(F)c2)cc(=O)[nH]1` [Example 43, N-{1-[3-fluoro-4-(trifluoromethyl)phenyl]-1-methylethyl}-2-methyl-6-oxo-1,6-dihydropyrimidine-4-carboxamide], the Ki on Rhesus PDE2A3 (setting [1]) was 20 nM; at Rhesus PDE2A3 (setting [4]) it was 14 nM; on human PDE2A1 (setting [2]), 18 nM; on human PDE2A1 (setting [3]) it was 15 nM.
